# According to US20160158200A1, “Combinations of Hepatitis C Virus Inhibitors” (priority 2013, published 2016):
# How the values were obtained:
# [1] = tested on: HCV genotype 1a L31V variant with leucine 31 changed to valine in the NS5A protein; assay: microbe, parasite or virus in culture; format: cell-based; conditions: genotype 1a L31V replicon; test compound titrated with compound N47 fixed at 200 nM versus singly
# [2] = tested on: HCV genotype 1a Y93H variant with tyrosine 93 changed to histidine in the NS5A protein; assay: microbe, parasite or virus in culture; format: cell-based; conditions: genotype 1a Y93H replicon; test compound titrated with compound N47 fixed at 200 nM versus singly
# Protocol: Combinations can be examined for synergistic activity using a variety of putative NS5A-targeting compounds and a variety of test compounds. […] The test compound can be chosen from compounds exemplified below, which were prepared by methods known in the art, or from others disclosed in the literature.
# Similarly, BMS-790052 can be tested singly and in combination with a fixed amount of compound N47 in the HCV replicon cell based assay consisting of the genotype 1a Y93H variant with tyrosine 93 changed to histidine in the NS5A protein.
Structure (SMILES),Fold-Synergistic G-1a (L31V) [1],Fold-Synergistic G-1a (Y93H) [2]
O=C(Nc1ccc(-c2nnc(-c3ccc(NC(=O)[C@@H]4CCCN4C(=O)Cc4cccnc4)cc3)o2)cc1)[C@@H]1CCCN1C(=O)Cc1cccnc1,<10 fold,<10 fold
Cc1nc(-c2ccc(NC(=O)[C@@H]3CCCN3C(=O)Cc3ccccc3)cc2)c(-c2ccc(NC(=O)[C@@H]3CCCN3C(=O)Cc3ccccc3)cc2)s1,<10 fold,<10 fold
COC(=O)N[C@H](C(=O)N1CCC[C@H]1c1nc2ccc(-c3cnc(-c4cccc5nc([C@@H]6CCCN6C(=O)[C@@H](NC(=O)OC)C(C)C)[nH]c45)o3)cc2[nH]1)C(C)C,<10 fold,>100 fold
COC(=O)N[C@H](C(=O)N1CCC[C@H]1c1ncc(-c2ccc(-c3ccc4c(c3)CCCc3[nH]c([C@@H]5CCCN5C(=O)[C@@H](NC(=O)OC)C(C)C)nc3-4)cc2)[nH]1)C(C)C,>100 fold,>100 fold
COC(=O)N[C@H](C(=O)N1CCC[C@H]1c1nc2cc(C#Cc3ccc4[nH]c([C@@H]5CCCN5C(=O)[C@@H](NC(=O)OC)C(C)C)nc4c3)ccc2[nH]1)C(C)C,<10 fold,>10 fold
CCN(CC)[C@@H](C(=O)N1CCC[C@H]1c1nc2c([nH]1)CCCc1cc(-c3ccc4nc([C@@H]5CCCN5C(=O)[C@@H](c5ccccc5)N(CC)CC)[nH]c4c3)ccc1-2)c1ccccc1,<10 fold,<10 fold
COC(=O)N[C@H](C(=O)N1CCC[C@H]1c1nc(C2=CCC(C3CC=C(c4c[nH]c([C@@H]5CCCN5C(=O)[C@@H](NC(=O)OC)C(C)C)n4)CC3)CC2)c[nH]1)C(C)C (stereo partly drawn),>100 fold,>100 fold
COC(=O)N[C@H](C(=O)N1CCC[C@H]1c1ncc(-c2ccc(-c3ccc4c(c3)CCc3nc([C@@H]5CCCN5C(=O)[C@@H](NC(=O)OC)C(C)C)[nH]c3-4)cc2)[nH]1)C(C)C,>100 fold,>100 fold
COC(=O)N[C@H](C(=O)N1CC(F)(F)C[C@H]1c1nc(-c2ccc(-c3ccc(-c4c[nH]c([C@@H]5CC(F)(F)CN5C(=O)[C@@H](NC(=O)OC)C(C)C)n4)cc3)cc2)c[nH]1)C(C)C,>100 fold,>100 fold
COC(=O)N[C@H](C(=O)N1CCC[C@H]1c1nc(-c2ccc(-c3ccc4c(c3)CCCCc3[nH]c([C@@H]5CCCN5C(=O)[C@@H](NC(=O)OC)C(C)C)nc3-4)cc2)c[nH]1)C(C)C,>100 fold,>100 fold
COC(=O)N[C@H](C(=O)N1[C@@H]2C[C@@H]2C[C@H]1c1ncc(-c2ccc(-c3ccc(-c4cnc([C@@H]5C[C@H]6C[C@H]6N5C(=O)[C@@H](NC(=O)OC)C(C)C)[nH]4)cc3)cc2)[nH]1)C(C)C,>100 fold,>100 fold
COC(=O)N[C@@H](C)C(=O)N1[C@@H]2CC[C@@H](C2)[C@H]1c1nc(-c2ccc(-c3ccc(-c4cnc([C@@H]5[C@H]6CC[C@H](C6)N5C(=O)[C@H](C)NC(=O)OC)[nH]4)cc3)cc2)c[nH]1,>10 fold,<10 fold
COC(=O)N[C@H](C(=O)N1[C@@H](C)CC[C@H]1c1ncc(-c2ccc(-c3ccc(-c4cnc([C@@H]5CC[C@H](C)N5C(=O)[C@@H](NC(=O)OC)C(C)C)[nH]4)cc3)cc2)[nH]1)C(C)C,>100 fold,>100 fold
COC(=O)N[C@H](C(=O)N1CCn2c(-c3ccc(-c4ccc(-c5cnc6n5CCN(C(=O)[C@@H](NC(=O)OC)C(C)C)C6)cc4)cc3)cnc2C1)C(C)C,<10 fold,<10 fold
COC(=O)N[C@H](C(=O)N1CCC[C@H]1c1nc2ccc3cc(-c4ccc5c(ccc6nc([C@@H]7CCCN7C(=O)[C@@H](NC(=O)OC)C(C)C)[nH]c65)c4)ccc3c2[nH]1)C(C)C,>100 fold,>100 fold
COC(=O)N[C@H](C(=O)N1[C@@H]2CC[C@@H]2C[C@H]1c1nc(-c2ccc(-c3ccc(-c4cnc([C@@H]5C[C@H]6CC[C@H]6N5C(=O)[C@@H](NC(=O)OC)C(C)C)[nH]4)cc3)cc2)c[nH]1)C(C)C,>100 fold,>100 fold
COC(=O)N[C@H](C(=O)N1[C@H](C)CC[C@H]1c1ncc(-c2ccc(-c3ccc(-c4cnc([C@@H]5CC[C@@H](C)N5C(=O)[C@@H](NC(=O)OC)C(C)C)[nH]4)cc3)cc2)[nH]1)C(C)C,>100 fold,>100 fold
COC(=O)N[C@H](C(=O)N1[C@@H]2C[C@@H]2C[C@H]1c1nc2ccc(-c3ccc(-c4ccc5nc([C@@H]6C[C@H]7C[C@H]7N6C(=O)[C@@H](NC(=O)OC)C(C)C)[nH]c5c4)cc3)cc2[nH]1)C(C)C,>10 fold,>100 fold
CC[C@H](NC(=O)OC)C(=O)N1[C@@H]2C[C@@H]2C[C@H]1c1ncc(-c2ccc(C34CCC(c5cnc([C@@H]6C[C@H]7C[C@H]7N6C(=O)[C@H](CC)NC(=O)OC)[nH]5)(CC3)CC4)cc2)[nH]1,>100 fold,>100 fold
CN(C)[C@@H](C(=O)N1CCC[C@H]1c1ncc(-c2ccc(-c3ccc(-c4cnc([C@@H]5CCCN5C(=O)[C@@H](c5ccccc5)N(C)C)[nH]4)s3)s2)[nH]1)c1ccccc1,<10 fold,<10 fold
COC(=O)N[C@H](C(=O)N1[C@@H]2C[C@@H]2C[C@H]1c1nc2cc(Oc3cccc(-c4ccc5[nH]c([C@@H]6C[C@H]7C[C@H]7N6C(=O)[C@@H](NC(=O)OC)C(C)C)nc5c4)c3)ccc2[nH]1)C(C)C,>10 fold,>10 fold
COC(=O)N[C@@H](C(=O)N1CCC[C@H]1c1ncc(-c2nc3cc4sc(-c5cnc([C@@H]6CCCN6C(=O)[C@H](NC(=O)OC)c6ccccc6)[nH]5)nc4cc3s2)[nH]1)c1ccccc1,<10 fold,>100 fold
COC(=O)N[C@H]1CCC[C@H]2CC[C@@H](c3nc(-c4ccc(-c5ccc(-c6c[nH]c([C@@H]7CC[C@@H]8CCC[C@H](NC(=O)OC)C(=O)N87)n6)cc5)cc4)c[nH]3)N2C1=O,<10 fold,<10 fold
COC(=O)N[C@H](C(=O)N1[C@@H]2C[C@@H]2C[C@H]1c1nc2cc(-c3ccc(Oc4cccc5[nH]c([C@@H]6C[C@H]7C[C@H]7N6C(=O)[C@@H](NC(=O)OC)C(C)C)nc45)cc3)ccc2[nH]1)C(C)C,>10 fold,>100 fold
COC(=O)N[C@H](C(=O)N1CCC[C@H]1c1nc2ccc(C#CC#Cc3ccc4nc([C@@H]5CCCN5C(=O)[C@@H](NC(=O)OC)C(C)C)[nH]c4c3)cc2[nH]1)C(C)C,>100 fold,>10 fold
COC(=O)N[C@H](C(=O)N1CCC[C@H]1c1ncc(-c2cnc(-c3ncc(-c4cnc([C@@H]5CCCN5C(=O)[C@@H](NC(=O)OC)C(C)C)[nH]4)s3)s2)[nH]1)C(C)C,>10 fold,>100 fold
COC(=O)N[C@H](C(=O)N1C[C@H](C)CC1c1nc(-c2ccc(-c3ccc(-c4cnc([C@@H]5C[C@@H](C)CN5C(=O)[C@@H](NC(=O)OC)C(C)C)[nH]4)cc3)cc2)c[nH]1)C(C)C (stereo partly drawn),>100 fold,>100 fold
